Measured values from patent US5010057A, “Renin-inhibiting peptides having an aminomethyl side chain” (Bayer Aktiengesellschaft, priority 1988, dated 1991).
Starred links: 1 amine or outer side, 2 acyl side, 3 side chain; linkers in the order of their positions; H or OH if unused. Non-standard residues stand in square brackets, D forms with d. Residues, ends and D or L forms follow the SMILES beside them. *: point of attachment. X2 = NCC(C(=O)[*:2])C(O)[C@H](CC1CCCCC1)N[*:1]; X1 = CC(C)C[C@H](N[*:1])C(O)C(CN)C(=O)[*:2]; NHCH2(2-pyridyl) = c1ccc(CN*)nc1; Boc = CC(C)(C)OC(=O)*

Target: T1, endogenous renin from human plasma (Homo sapiens, UniProt P00797)
T1 construct: endogenous renin from human plasma; from tissue; host or cells: pooled human plasma (EDTA)
T1 sequence (P00797 67-406): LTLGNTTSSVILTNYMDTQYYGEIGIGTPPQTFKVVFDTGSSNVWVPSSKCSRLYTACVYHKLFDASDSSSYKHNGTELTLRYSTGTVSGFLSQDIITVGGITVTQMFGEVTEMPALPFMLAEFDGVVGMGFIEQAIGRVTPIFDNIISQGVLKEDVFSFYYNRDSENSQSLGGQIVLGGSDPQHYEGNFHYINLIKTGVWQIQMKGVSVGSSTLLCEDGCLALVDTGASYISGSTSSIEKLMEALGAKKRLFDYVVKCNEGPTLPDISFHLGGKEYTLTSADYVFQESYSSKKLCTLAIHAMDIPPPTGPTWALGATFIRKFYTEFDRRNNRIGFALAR
Assay: In vitro test: inhibition of plasma renin activity (angiotensin I formation, radioimmunoassay)
Assay type: biochemical
Conditions: pooled human plasma, 37° C., pH 5.6; for % Inhibition: plasma renin activity, test concentration not given; for IC50: 50% inhibition of plasma renin activity
Procedure: The inhibitory strength of the peptides according to the invention against endogenous renin from human plasma is determined in vitro. Pooled human plasma is obtained with the addition of ethylenediamintetraacetic acid (EDTA) as an anticoagulant and stored at -20° C. The plasma renin activities (PRA) are determined as the rate of formation of angiotensin I from endogenous angiotensinogen and renin by incubation at 37° C. The reaction solution contains 150 μl of plasma, 3 μl of 6.6% strength 8-hydroxyquinoline sulphate solution, 3 μl of 10% strength dimercaprol solution and 144 μl of sodium phosphate buffer (0.2 M; 0.1% EDTA; pH 5.6) with or without the substances according to the invention in various concentrations. The angiotensin I formed per unit of time is determined using a radioimmunoassay (Sorin Biomedica, Italy). The percentage inhibition of the plasma renin activity is calculated by comparison of […]. The concentration range in which the substances claimed herein show a 50% inhibition of plasma renin activity is between 10^-4 to 10^-9 M.

% Inhibition	IC50	Structure (SMILES)
96%	11000 nM	CC[C@H](C)[C@H](NC(=O)C(CN)C(O)[C@H](Cc1ccccc1)NC(=O)[C@H](Cc1c[nH]cn1)NC(=O)[C@H](Cc1ccccc1)NC(=O)OC(C)(C)C)C(=O)OC (some centres unmarked) [Example 77]
95%	2500 nM	CC[C@H](C)[C@H](NC(=O)C(CN)C(O)[C@H](Cc1ccccc1)NC(=O)[C@H](Cc1c[nH]cn1)NC(=O)[C@H](Cc1ccccc1)NC(=O)OC(C)(C)C)C(=O)NCc1ccccn1 (some centres unmarked) [Example 79]
89%	1400 nM	CC[C@H](C)[C@H](NC(=O)C(CN)C(O)[C@H](CC1CCCCC1)NC(=O)[C@H](Cc1c[nH]cn1)NC(=O)[C@H](Cc1ccccc1)NC(=O)OC(C)(C)C)C(=O)OC (some centres unmarked) [Example 82]
100%	92 nM	CC[C@H](C)[C@H](NC(=O)C(CN)C(O)[C@H](CC1CCCCC1)NC(=O)[C@H](Cc1c[nH]cn1)NC(=O)[C@H](Cc1ccccc1)NC(=O)OC(C)(C)C)C(=O)NCc1ccccn1 (some centres unmarked) [Example 84]
100%	240 nM	CC[C@H](C)[C@H](NC(=O)C(CN)C(O)[C@H](CC1CCCCC1)NC(=O)[C@H](Cc1c[nH]cn1)NC(=O)[C@H](Cc1ccccc1)NC(=O)[C@@H]1CCCN1C(=O)OC(C)(C)C)C(=O)NCc1ccccn1 (some centres unmarked) [Example 85] (Boc-PFH[X2]I-{NHCH2(2-pyridyl)})
92%	9000 nM	CC(C)CNC(=O)C(CN)C(O)[C@H](CC1CCCCC1)NC(=O)[C@H](Cc1c[nH]cn1)NC(=O)[C@H](Cc1ccccc1)NC(=O)OC(C)(C)C (some centres unmarked) [Example 86]
100%	3700 nM	CC[C@H](C)[C@H](NC(=O)C(CN)C(O)[C@H](CC(C)C)NC(=O)[C@H](Cc1c[nH]cn1)NC(=O)[C@H](Cc1ccccc1)NC(=O)OC(C)(C)C)C(=O)OC (some centres unmarked) [Example 94]
100%	1000 nM	CC[C@H](C)[C@H](NC(=O)C(CN)C(O)[C@H](CC(C)C)NC(=O)[C@H](Cc1c[nH]cn1)NC(=O)[C@H](Cc1ccccc1)NC(=O)OC(C)(C)C)C(=O)NCc1ccccn1 (some centres unmarked) [Example 96]
100%	22 nM	CC[C@H](C)[C@H](NC(=O)C(CN)C(O)[C@H](CC(C)C)NC(=O)[C@H](Cc1c[nH]cn1)NC(=O)[C@H](Cc1ccccc1)NC(=O)[C@@H]1CCCN1C(=O)OC(C)(C)C)C(=O)NCc1ccccn1 (some centres unmarked) [Example 97] (Boc-PFH[X1]I-{NHCH2(2-pyridyl)})

Structure (SMILES)	% Inhibition	IC50
CC[C@H](C)[C@H](NC(=O)C1CN(Cc2ccccc2)OC1[C@H](Cc1ccccc1)NC(=O)[C@H](Cc1c[nH]cn1)NC(=O)[C@H](Cc1ccccc1)NC(=O)OC(C)(C)C)C(=O)OC (some centres unmarked) [Example 31]	31%	–
CC[C@H](C)[C@H](NC(=O)C1CN(Cc2ccccc2)OC1[C@H](CC1CCCCC1)NC(=O)[C@H](Cc1c[nH]cn1)NC(=O)[C@H](Cc1ccccc1)NC(=O)OC(C)(C)C)C(=O)OC (some centres unmarked) [Example 39]	67%	–
